Holding throughout (type): cell-based
Set-up in all cases: expressed in transfected cells; host or cells: HEK293 cells transfected with VIPR2 in pCDNA3.1 (as described)

Test [1] addresses T1, VIPR2 (Homo sapiens, UniProt P41587).
T1 sequence (P41587 24-438): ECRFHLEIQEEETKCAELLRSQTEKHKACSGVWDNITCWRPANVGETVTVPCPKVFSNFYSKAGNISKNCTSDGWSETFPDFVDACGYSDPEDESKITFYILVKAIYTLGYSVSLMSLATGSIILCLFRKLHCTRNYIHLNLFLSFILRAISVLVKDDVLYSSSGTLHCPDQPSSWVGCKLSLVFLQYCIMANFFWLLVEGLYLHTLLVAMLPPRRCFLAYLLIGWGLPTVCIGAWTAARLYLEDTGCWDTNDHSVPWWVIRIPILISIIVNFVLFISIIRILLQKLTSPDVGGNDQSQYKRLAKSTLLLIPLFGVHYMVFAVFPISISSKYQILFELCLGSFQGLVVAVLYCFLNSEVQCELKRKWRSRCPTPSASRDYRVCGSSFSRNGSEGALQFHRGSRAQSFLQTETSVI
In words: Inhibition of VIP-induced β-arrestin recruitment (% Activity Arrestin). The procedure, abridged:
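HEK293 cells stably expressing β-arrestin2–β-gal EA, transiently transfected with ProLink-tagged hVIPR2, plated overnight; inhibitor added for 2 h at 37 °C, 5% CO2. Receptor–arrestin complementation read by chemiluminescence after 5 min–1 h at room temperature; inhibition of VIP-induced recruitment reported as % activity.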
For orientation: Activated receptors often draw arrestin, which recruitment assays turn into a signal.

The target of test [2] is T1, VIPR2. The test is described as follows: Inhibition of VIP-induced cAMP elevation (% Activity cAMP). The essentials:
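HEK293 cells stably transfected with human VIPR2 were incubated with inhibitor and VIP for 30 min, then cAMP was detected by HTRF after at least 1 h at room temperature. The 665/620 nm ratio ×10,000 was calculated.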

Test [3] deals with T1, VIPR2. In words: % Activity: inhibition of VIP-induced cAMP elevation and β-arrestin recruitment (Table 2). The essentials:
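cAMP: HEK293 stably expressing hVIPR2, inhibitor plus VIP 30 min, cAMP by HTRF (665/620 nm ratio ×10,000). β-arrestin: HEK293 with β-arrestin2-β-gal-EA, transiently transfected with VIPR2-ProLink; inhibitor 2 h at 37° C, enzyme complementation read by luminescence.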

As a reminder, the inhibition is the drop in the measured response relative to a control, in per cent. On to `CCN(CC)C(=O)c1ccc(S(=O)(=O)NC[C@@H](O)C[C@@H](Cc2ccccc2)C(=O)N[C@H]2c3ccccc3C[C@H]2O)cc1` [Compound X096], for which, on VIPR2 [1] (Batch 3), the inhibition at 0.5 µM was 0.3%, the inhibition at 1 µM turned out to be 3.1% and the inhibition at 5 µM was -1.2%. Also, on VIPR2 [2] (Batch 3), the inhibition at 0.5 µM is 2.5%, the inhibition at 1 µM was found to be 5.9% and the inhibition at 5 µM was 31.8%. Further, the “% Activity” value at VIPR2 [3] turned out to be 15.3%.

Turning to `O=C(NC1CCCC1)c1ccc(S(=O)(=O)NC[C@@H](O)C[C@@H](Cc2ccccc2)C(=O)N[C@H]2c3ccccc3C[C@H]2O)cc1` [Compound X097], at VIPR2 [1] (Batch 3), the inhibition at 0.5 µM turned out to be 3.9%, the inhibition at 1 µM is 0.5% and the inhibition at 5 µM turned out to be 0.1%. Also, on VIPR2 [2] (Batch 3), the inhibition at 0.5 µM amounted to 15.2%, the inhibition at 1 µM came to 19.6% and the inhibition at 5 µM is 31.8%. Further, at VIPR2 [3], the “% Activity” value was 15.95%.

As for `O=C(NCc1ccccc1)c1ccc(S(=O)(=O)NC[C@@H](O)C[C@@H](Cc2ccccc2)C(=O)N[C@H]2c3ccccc3C[C@H]2O)cc1` [Compound X098], at VIPR2 [1] (Batch 3), the inhibition at 0.5 µM is 4.8%, the inhibition at 1 µM was -2% and the inhibition at 5 µM is -7.7%. At VIPR2 [2] (Batch 3), the inhibition at 0.5 µM was found to be 25%, the inhibition at 1 µM came out at 32.3% and the inhibition at 5 µM is 90.6%. For the same compound, the “% Activity” value on VIPR2 [3] was found to be 41.4%.

As to `O=C(N[C@H]1c2ccccc2C[C@H]1O)[C@H](Cc1ccccc1)C[C@H](O)CNS(=O)(=O)c1ccc(C(=O)N2CCOCC2)cc1` [Compound X099], at VIPR2 [1] (Batch 3), the inhibition at 0.5 µM was 4.1%, the inhibition at 1 µM came to 1.8% and the inhibition at 5 µM is -5.4%. Besides, on VIPR2 [2] (Batch 3), the inhibition at 0.5 µM is -1.4%, the inhibition at 1 µM came to 0.1% and the inhibition at 5 µM was determined as 25.5%. Further, the “% Activity” value on VIPR2 [3] is 10.05%.

For the compound `CCCCNC(=O)c1ccc(S(=O)(=O)NC[C@@H](O)C[C@@H](Cc2ccccc2)C(=O)N[C@H]2c3ccccc3C[C@H]2O)cc1` [Compound X100], at VIPR2 [1] (Batch 3), the inhibition at 0.5 µM was -0.4%, the inhibition at 1 µM stood at 2.9% and the inhibition at 5 µM was -5.5%. Also, at VIPR2 [2] (Batch 3), the inhibition at 0.5 µM was -0.4%, the inhibition at 1 µM came to 5.9% and the inhibition at 5 µM was found to be 20.6%. In addition, the “% Activity” value on VIPR2 [3] stood at 7.55%.

`O=C(N[C@H]1c2ccccc2C[C@H]1O)[C@H](Cc1ccccc1)C[C@H](O)CNS(=O)(=O)c1ccc(C(=O)N2CCCCC2)cc1` [Compound X101]: at VIPR2 [1] (Batch 3), the inhibition at 0.5 µM was 0%, the inhibition at 1 µM is -17.3% and the inhibition at 5 µM is -12.3%. Besides, at VIPR2 [2] (Batch 3), the inhibition at 0.5 µM was -6.3%, the inhibition at 1 µM was -7.3% and the inhibition at 5 µM is -1.4%. Moreover, the “% Activity” value on VIPR2 [3] is given as −6.85%.

Regarding `O=C(NC[C@@H](O)C[C@@H](Cc1ccccc1)C(=O)N[C@H]1c2ccccc2C[C@H]1O)c1c(Cl)cc(Cl)cc1Cl` [D], at VIPR2 [1] (Batch 1), the inhibition at 0.5 µM is 23.9%, the inhibition at 1 µM amounted to 25.3% and the inhibition at 5 µM was determined as 31.5%. Besides, at VIPR2 [2] (Batch 1), the inhibition at 0.5 µM was found to be 17.6%, the inhibition at 1 µM stood at 14.8% and the inhibition at 5 µM amounted to 12.3%. The “% Activity” value on VIPR2 [3] is on record as 21.9%.

With `O=C(NC[C@@H](O)C[C@@H](Cc1ccccc1)C(=O)N[C@H]1c2ccccc2C[C@H]1O)c1ccccc1[N+](=O)[O-]` [G], at VIPR2 [1] (Batch 1), the inhibition at 0.5 µM turned out to be 36.4%, the inhibition at 1 µM was 35.1% and the inhibition at 5 µM worked out at 26.1%. Also, at VIPR2 [2] (Batch 1), the inhibition at 0.5 µM was found to be 17.6%, the inhibition at 1 µM stood at 14.3% and the inhibition at 5 µM was 9.1%. On VIPR2 [3], the “% Activity” value is listed as 17.6%.

In the case of `COc1cc(C(=O)NC[C@@H](O)C[C@@H](Cc2ccccc2)C(=O)N[C@H]2c3ccccc3C[C@H]2O)cc(OC)c1OC` [H], on VIPR2 [1] (Batch 1), the inhibition at 0.5 µM is 29.6%, the inhibition at 1 µM worked out at 37.2% and the inhibition at 5 µM turned out to be 18%. In addition, at VIPR2 [2] (Batch 1), the inhibition at 0.5 µM was determined as 15.6%, the inhibition at 1 µM was 20% and the inhibition at 5 µM was found to be 9.3%. Moreover, on VIPR2 [3], the “% Activity” value turned out to be 13.65%.

The values above are taken from patent publication US20150239831A1, “INHIBITORS OF CENTRAL NERVOUS SYSTEM VASOACTIVE INHIBITORY PEPTIDE RECEPTOR 2” (The Trustees Of Columbia University In The City Of New York, priority 2012, published 2015).
